Measured values published in patent publication US6479553B1, “Use of certain affinity NMDA antagonists as antidepressants” (AstraZeneca AB, priority 1999, dated 2002).
Entries after “also recorded” stand apart in the source; their conditions may differ. Marks after values point to notes of the source that are not given here.

Assays:
Type in all cases: in vivo
[1] = system: male NMRI mice; assay: Forced swim test in mice; conditions: for Average Immobility Time: forced swim test, 60 minutes pre-test, last four minutes of test
[2] = system: male NMRI mice; assay: Small tube test in mice; conditions: for Average Immobility Time: small tube test, 60 minutes pre-test, last four minutes of test; for Effect on immobility in the small tube test, in words: summary of Table 2, check for non-specific stimulant activity
[3] = system: rat; assay: Test for possible sedative activity (motor activity) in the rat; conditions: 200 mg/kg, up to fifty times the oral effective dose in the MES test
Procedure: (S)-1-Phenyl-2-(2-pyridyl)ethanamine was further tested for possible sedative activity in the rat. At doses up to fifty times the oral effective dose in the maximum electroshock seizure test (MES), (S)-1-phenyl-2-(2-pyridyl)ethanamine induced no changes in four parameters of motor activity, namely, distance travelled, ambulatory time, stereotyped time and resting time. The dose administered was 200 mg/kg.

## (+)-MK 801
[1]; dose 0.01 mg/kg i.p.
  Average Immobility Time: 155 s
[1]; dose 0.03 mg/kg i.p.
  Average Immobility Time: 164 s
[1]; dose 0.1 mg/kg i.p.
  Average Immobility Time: 80* seconds
[1]; dose 0.3 mg/kg i.p.
  Average Immobility Time: 10* seconds
[1]; summary of Table 1
  Effect in the forced swim test (reduction in immobility time), in words: positive effects
[2]; dose 0.01 mg/kg i.p.
  Average Immobility Time: 190 s
[2]; dose 0.03 mg/kg i.p.
  Average Immobility Time: 173 s
[2]; dose 0.1 mg/kg i.p.
  Average Immobility Time: 128* seconds
[2]; dose 0.3 mg/kg i.p.
  Average Immobility Time: 84* seconds
[2]
  Effect on immobility in the small tube test, in words: reduced immobility

## Cl.Cl.N[C@@H](Cc1ccccn1)c1ccccc1 [(S)-1-phenyl-2-(2-pyridyl)ethanamine dihydrochloride]
[1]; dose 1 mg/kg i.p.
  Average Immobility Time: 158 s
[1]; dose 3 mg/kg i.p.
  Average Immobility Time: 120* seconds
[1]; dose 10 mg/kg i.p.
  Average Immobility Time: 145* seconds
[1]; summary of Table 1, dihydrochloride
  Effect in the forced swim test (reduction in immobility time), in words: positive effects; also recorded: have activity in the mouse forced swim test
[2]; dose 1 mg/kg i.p.
  Average Immobility Time: 192 s
[2]; dose 3 mg/kg i.p.
  Average Immobility Time: 210* seconds
[2]; dose 10 mg/kg i.p.
  Average Immobility Time: 201 s
[2]
  Effect on immobility in the small tube test, in words: little effect
[3]
  Changes in four parameters of motor activity (distance travelled, ambulatory time, stereotyped time and resting time): no changes

## CN(C)CCCN1c2ccccc2CCc2ccccc21 [Imipramine, imipramine]
[1]; dose 10 mg/kg i.p.
  Average Immobility Time: 143* seconds
[1]; summary of Table 1
  Effect in the forced swim test (reduction in immobility time), in words: very similar result to that observed with (S)-1-phenyl-2-(2-pyridyl)ethanamine
[2]; dose 10 mg/kg i.p.
  Average Immobility Time: 202 s
[2]
  Effect on immobility in the small tube test, in words: little effect
